Data as given in article PMC4858680, “A platinum-based hybrid drug design approach to circumvent acquired resistance to molecular targeted tyrosine kinase inhibitors” (Scientific Reports, 2016).

Columns and labels:
MET(M1250T) = MET(M1250T) (Homo sapiens, UniProt P08581, M1250T); settings: 10 μM
[1] = Chemical stability of the hybrid compounds; settings: saline, phosphate buffered solution (pH 4 and 7.4), culture medium with 5 mM glutathione
PDGFRB = PDGFRB (Homo sapiens, UniProt P09619); settings: 10 μM
MET(Y1235D) = MET(Y1235D) (Homo sapiens, UniProt P08581, Y1235D); settings: 10 μM
[2] = target: ABL1(T315I)-phosphorylated (Homo sapiens, UniProt P00519, T315I); settings: 10 μM
SRC = SRC (Homo sapiens, UniProt P12931); settings: 10 μM
ABL1-nonphosphorylated = ABL1-nonphosphorylated (Homo sapiens, UniProt P00519); settings: 10 μM
EGFR(L861Q) = EGFR(L861Q) (Homo sapiens, UniProt P00533, L861Q); settings: 10 μM
EPHB6 = target: T1, EPHB6 (Homo sapiens, UniProt O15197); assay: biochemical; settings: read-out: Percent control
T1 sequence (O15197 32-1021): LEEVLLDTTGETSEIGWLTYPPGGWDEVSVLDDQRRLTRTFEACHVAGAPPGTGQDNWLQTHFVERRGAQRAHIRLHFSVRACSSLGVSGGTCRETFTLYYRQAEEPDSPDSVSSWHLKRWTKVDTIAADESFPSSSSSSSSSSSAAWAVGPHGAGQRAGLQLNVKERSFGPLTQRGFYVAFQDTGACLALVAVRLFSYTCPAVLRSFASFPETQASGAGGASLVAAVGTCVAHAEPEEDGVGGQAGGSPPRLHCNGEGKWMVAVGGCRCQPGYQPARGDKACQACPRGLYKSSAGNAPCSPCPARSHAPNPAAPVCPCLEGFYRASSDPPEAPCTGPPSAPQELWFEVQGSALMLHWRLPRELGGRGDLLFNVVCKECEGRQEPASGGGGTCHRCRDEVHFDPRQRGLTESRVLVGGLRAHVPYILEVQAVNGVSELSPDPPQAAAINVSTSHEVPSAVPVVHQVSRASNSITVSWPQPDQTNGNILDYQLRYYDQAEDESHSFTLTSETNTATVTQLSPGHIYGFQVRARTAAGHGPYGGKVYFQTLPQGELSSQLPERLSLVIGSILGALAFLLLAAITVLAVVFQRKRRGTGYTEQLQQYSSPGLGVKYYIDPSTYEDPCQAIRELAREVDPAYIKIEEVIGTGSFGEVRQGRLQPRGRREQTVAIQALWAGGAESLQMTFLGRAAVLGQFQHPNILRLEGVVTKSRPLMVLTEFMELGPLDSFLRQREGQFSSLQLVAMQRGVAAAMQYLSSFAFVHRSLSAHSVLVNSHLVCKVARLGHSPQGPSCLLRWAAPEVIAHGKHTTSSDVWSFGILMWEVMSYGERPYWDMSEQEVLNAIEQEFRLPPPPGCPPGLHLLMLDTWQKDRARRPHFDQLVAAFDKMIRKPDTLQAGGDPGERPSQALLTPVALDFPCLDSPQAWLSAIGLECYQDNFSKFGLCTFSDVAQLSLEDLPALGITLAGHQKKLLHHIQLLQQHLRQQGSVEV

TRKC = TRKC (Homo sapiens, UniProt Q16288); assay: biochemical; settings: read-out: Percent control
HCC827 = assay: Anticancer activity (cytotoxicity) in NSCLC cell line; type: cell-based; settings: Homo sapiens, HCC827, EGFR ΔE746-A750 (sensitizing)
SYK = SYK (Homo sapiens, UniProt P43405); assay: biochemical; settings: read-out: Percent control
ABL2 = ABL2 (Homo sapiens, UniProt P42684); assay: biochemical; settings: read-out: Percent control
FLT4 = FLT4 (Homo sapiens, UniProt P35916); assay: biochemical; settings: read-out: Percent control
KIT = KIT (Homo sapiens, UniProt P10721); assay: biochemical; settings: read-out: Percent control
FLT3(R834Q) = target: T2, FLT3(R834Q) (Homo sapiens, UniProt P36888, R834Q); assay: biochemical; settings: read-out: Percent control
T2 sequence (P36888 27-993 R834Q): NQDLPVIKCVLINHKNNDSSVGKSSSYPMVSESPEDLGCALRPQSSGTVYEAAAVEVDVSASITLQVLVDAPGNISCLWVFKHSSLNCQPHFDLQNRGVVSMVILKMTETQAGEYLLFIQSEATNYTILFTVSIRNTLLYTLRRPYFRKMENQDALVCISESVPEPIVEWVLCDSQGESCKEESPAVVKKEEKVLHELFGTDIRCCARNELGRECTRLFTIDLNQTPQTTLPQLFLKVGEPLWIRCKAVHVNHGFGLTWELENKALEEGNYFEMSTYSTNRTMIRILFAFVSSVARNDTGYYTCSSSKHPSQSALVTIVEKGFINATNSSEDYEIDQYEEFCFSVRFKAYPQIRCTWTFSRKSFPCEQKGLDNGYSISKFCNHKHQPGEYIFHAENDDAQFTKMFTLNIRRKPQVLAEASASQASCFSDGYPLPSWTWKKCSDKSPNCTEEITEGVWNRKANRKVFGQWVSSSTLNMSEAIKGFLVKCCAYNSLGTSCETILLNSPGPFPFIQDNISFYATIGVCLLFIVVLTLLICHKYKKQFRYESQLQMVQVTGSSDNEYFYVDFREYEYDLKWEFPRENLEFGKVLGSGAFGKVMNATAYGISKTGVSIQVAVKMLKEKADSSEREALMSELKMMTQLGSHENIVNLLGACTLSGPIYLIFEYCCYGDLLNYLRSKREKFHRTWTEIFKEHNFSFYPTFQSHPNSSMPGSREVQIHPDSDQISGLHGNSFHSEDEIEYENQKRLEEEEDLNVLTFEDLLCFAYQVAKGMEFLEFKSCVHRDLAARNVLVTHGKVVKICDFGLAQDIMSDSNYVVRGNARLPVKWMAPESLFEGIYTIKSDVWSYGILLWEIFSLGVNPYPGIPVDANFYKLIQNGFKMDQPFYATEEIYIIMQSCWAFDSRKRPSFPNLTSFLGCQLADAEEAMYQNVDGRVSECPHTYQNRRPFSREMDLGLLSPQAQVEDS

[3] = target: ABL1(F317L)-nonphosphorylated (Homo sapiens, UniProt P00519, F317L); assay: biochemical; settings: read-out: Percent control

Chain of FLT4 (P35916 25-1363): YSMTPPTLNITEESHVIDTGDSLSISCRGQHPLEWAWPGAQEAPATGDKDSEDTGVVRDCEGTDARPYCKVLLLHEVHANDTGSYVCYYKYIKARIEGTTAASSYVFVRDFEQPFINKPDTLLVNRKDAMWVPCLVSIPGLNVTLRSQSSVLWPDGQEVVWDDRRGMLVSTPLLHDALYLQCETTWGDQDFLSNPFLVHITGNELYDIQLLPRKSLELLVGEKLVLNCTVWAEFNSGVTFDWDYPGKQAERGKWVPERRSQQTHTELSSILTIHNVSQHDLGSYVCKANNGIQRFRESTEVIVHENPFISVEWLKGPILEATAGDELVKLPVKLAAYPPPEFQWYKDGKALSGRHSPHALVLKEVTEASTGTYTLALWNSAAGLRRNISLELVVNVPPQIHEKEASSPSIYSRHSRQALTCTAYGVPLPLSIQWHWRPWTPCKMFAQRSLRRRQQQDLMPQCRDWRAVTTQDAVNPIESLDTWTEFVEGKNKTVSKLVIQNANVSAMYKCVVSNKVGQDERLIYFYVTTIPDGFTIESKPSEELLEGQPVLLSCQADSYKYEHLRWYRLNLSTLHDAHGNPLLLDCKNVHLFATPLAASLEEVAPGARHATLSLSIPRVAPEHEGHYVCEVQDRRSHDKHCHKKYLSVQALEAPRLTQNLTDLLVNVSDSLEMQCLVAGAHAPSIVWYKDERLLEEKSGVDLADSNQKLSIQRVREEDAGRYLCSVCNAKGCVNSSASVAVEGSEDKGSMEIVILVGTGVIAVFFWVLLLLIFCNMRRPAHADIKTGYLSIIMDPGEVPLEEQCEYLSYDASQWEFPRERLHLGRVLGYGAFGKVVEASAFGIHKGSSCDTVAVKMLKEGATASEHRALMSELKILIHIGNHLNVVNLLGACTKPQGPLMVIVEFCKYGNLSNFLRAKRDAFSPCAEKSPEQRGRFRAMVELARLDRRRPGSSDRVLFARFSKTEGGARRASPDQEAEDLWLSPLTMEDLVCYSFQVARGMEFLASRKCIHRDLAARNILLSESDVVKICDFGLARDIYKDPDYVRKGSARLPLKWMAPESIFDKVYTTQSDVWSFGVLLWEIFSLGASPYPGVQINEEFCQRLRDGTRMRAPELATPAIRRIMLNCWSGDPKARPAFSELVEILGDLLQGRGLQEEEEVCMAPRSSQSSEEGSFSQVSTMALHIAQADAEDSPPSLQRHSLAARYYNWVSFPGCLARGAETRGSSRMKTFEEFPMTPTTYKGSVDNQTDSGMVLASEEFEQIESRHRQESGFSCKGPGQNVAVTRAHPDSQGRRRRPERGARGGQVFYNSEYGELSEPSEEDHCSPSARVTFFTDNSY
Chain of KIT (P10721 26-976): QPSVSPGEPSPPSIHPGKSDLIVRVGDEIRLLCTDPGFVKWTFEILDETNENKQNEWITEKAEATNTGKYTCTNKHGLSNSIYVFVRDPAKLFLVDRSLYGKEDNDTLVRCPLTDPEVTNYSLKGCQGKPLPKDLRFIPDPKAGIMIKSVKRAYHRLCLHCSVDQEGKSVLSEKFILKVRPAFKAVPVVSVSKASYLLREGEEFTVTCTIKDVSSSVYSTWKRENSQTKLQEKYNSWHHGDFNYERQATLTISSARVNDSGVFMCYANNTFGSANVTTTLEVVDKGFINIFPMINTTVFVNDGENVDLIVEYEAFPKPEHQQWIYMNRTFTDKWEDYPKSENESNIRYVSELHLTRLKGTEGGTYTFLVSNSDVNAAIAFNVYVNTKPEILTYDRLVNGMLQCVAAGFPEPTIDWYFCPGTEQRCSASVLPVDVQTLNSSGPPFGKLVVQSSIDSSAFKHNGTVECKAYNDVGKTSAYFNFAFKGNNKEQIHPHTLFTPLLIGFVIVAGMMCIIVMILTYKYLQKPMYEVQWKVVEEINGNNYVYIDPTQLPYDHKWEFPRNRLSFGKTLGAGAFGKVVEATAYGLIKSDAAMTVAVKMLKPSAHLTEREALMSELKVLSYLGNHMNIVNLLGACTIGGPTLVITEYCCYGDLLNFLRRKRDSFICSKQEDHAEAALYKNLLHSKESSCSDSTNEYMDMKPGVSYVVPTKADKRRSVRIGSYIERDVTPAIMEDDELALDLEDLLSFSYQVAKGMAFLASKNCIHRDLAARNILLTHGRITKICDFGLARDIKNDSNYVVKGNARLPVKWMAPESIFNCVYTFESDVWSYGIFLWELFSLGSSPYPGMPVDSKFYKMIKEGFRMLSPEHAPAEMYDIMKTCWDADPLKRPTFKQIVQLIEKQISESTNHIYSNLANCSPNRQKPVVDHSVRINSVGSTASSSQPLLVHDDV
Chain of MET(M1250T) (P08581 25-1390 M1250T): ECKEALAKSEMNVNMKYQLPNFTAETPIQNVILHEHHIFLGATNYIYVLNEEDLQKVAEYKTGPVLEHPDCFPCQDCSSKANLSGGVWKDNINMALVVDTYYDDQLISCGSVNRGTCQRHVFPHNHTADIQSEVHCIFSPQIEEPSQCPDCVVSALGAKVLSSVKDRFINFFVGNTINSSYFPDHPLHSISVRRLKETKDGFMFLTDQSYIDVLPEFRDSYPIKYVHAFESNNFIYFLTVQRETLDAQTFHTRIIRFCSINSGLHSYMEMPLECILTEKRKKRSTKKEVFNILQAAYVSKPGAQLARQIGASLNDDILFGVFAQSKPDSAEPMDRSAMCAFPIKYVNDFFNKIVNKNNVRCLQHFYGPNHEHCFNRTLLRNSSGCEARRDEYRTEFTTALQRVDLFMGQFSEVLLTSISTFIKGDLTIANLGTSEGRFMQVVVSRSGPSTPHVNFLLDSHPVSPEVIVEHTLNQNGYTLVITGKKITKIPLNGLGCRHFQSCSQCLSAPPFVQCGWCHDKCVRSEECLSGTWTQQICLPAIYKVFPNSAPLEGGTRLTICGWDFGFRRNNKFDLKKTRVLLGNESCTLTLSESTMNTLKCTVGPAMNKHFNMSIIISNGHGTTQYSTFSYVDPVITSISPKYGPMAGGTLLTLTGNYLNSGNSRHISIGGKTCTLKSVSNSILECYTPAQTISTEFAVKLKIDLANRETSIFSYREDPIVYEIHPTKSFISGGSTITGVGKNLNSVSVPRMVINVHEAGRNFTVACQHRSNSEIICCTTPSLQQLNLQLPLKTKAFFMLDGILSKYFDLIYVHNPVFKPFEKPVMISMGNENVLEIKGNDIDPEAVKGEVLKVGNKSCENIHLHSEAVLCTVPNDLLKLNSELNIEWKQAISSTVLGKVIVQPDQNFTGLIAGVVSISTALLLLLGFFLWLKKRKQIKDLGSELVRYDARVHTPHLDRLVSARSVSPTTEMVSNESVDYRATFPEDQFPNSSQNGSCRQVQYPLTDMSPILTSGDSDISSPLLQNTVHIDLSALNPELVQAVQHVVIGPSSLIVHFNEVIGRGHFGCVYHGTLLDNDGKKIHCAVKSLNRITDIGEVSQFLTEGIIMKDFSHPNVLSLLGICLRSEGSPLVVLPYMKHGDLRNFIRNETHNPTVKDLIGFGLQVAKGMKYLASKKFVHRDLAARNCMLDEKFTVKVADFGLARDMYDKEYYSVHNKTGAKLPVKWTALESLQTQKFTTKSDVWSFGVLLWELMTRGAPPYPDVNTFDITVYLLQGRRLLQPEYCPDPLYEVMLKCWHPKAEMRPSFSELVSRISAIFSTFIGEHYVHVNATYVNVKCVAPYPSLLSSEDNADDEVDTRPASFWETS
Chain of SRC (P12931 whole entry): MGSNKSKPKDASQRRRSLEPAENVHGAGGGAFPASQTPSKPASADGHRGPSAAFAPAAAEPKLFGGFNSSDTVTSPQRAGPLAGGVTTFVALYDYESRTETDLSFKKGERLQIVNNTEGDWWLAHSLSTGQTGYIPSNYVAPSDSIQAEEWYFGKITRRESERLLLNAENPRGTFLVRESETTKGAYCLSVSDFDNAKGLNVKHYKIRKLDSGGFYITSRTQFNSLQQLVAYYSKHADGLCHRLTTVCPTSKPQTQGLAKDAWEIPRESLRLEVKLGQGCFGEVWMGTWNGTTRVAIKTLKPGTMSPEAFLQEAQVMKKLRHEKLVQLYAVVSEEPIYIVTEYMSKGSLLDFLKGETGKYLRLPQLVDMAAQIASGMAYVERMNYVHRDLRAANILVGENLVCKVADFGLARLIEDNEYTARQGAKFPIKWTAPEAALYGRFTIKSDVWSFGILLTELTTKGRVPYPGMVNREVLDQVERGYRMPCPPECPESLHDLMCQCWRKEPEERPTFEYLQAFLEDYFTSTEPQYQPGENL
Chain of TRKC (Q16288 32-839): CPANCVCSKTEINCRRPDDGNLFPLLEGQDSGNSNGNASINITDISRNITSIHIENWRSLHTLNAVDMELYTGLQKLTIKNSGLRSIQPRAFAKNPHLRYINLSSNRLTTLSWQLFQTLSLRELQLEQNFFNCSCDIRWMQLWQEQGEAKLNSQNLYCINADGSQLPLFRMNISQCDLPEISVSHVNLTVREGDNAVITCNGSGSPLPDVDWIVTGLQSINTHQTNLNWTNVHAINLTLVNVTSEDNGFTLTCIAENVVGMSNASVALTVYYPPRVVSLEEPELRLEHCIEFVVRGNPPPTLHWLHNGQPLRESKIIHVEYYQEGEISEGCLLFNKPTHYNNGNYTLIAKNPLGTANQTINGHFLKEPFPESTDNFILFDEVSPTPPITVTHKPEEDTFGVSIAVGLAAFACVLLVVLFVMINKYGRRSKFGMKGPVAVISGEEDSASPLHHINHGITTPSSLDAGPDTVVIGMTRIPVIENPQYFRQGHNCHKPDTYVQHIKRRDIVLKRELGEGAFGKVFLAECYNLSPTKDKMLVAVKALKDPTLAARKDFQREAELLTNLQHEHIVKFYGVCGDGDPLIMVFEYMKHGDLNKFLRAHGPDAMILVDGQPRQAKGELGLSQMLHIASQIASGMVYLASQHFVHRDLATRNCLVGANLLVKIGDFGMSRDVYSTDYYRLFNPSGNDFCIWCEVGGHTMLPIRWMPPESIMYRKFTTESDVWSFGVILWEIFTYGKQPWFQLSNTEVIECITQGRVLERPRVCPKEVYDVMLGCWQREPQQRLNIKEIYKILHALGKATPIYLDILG

SMILES	Percent control (MET(M1250T))	chemical stability in all conditions tested [1]	Percent control (PDGFRB)	Percent control (MET(Y1235D))	Percent control (SRC)	remaining activity at 10 µM (EPHB6)	remaining activity at 10 µM (TRKC)	remaining activity at 10 µM (SYK)	remaining activity at 10 µM (FLT4)	remaining activity at 10 µM (KIT)	also measured
C#Cc1cccc(Nc2c3cc(OCCOC)c(OCCOC)cc3nc[n+]2[Pt@SP2-2]([NH3+])([NH3+])[Cl])c1 [2a, cisplatin-erlotinib]	95%	stable	85%	92%	66%	–	–	–	–	–	Percent control [2]: 30%; Percent control (ABL1-nonphosphorylated): 25%
COc1cc2c(Nc3ccc(Br)cc3F)[n+]([Pt-2]3([Cl])[NH2+]C4CCCCC4[NH2+]3)cnc2cc1OCC1CCN(C)CC1 (stereo not drawn) [3b, oxaliplatin-vandetanib]	–	–	–	–	0.5%	–	–	–	–	–	–
Cc1ccc(NC(=O)c2ccc(CN3CCN(C)CC3)cc2)cc1Nc1nccc(-c2cccnc2)[n+]1[Pt-2]1([Cl])[NH2+]C2CCCCC2[NH2+]1 (stereo not drawn) [1b, oxaliplatin-imatinib]	89%	stable	0.1%	100%	–	–	–	–	–	–	Percent control (EGFR(L861Q)): 42%
COc1cc2c(Nc3ccc(Br)cc3F)ncnc2cc1OCC1CCN(C)CC1 [Vandetanib, reference compound]	–	–	–	–	–	0.8%	100%	100%	9.9%	–	IC50 (HCC827): 11 ± 2 nM; remaining activity at 10 µM (ABL2): 0.7%
Cc1ccc(NC(=O)c2ccc(CN3CCN(C)CC3)cc2)cc1Nc1nccc(-c2cccnc2)n1 [Imatinib, reference compound]	–	–	–	–	–	–	–	–	–	0.1%	–
C#Cc1cccc(Nc2ncnc3cc(OCCOC)c(OCCOC)cc23)c1 [Erlotinib]	–	–	–	–	–	14.5%	100%	100%	17.4%	14.5%	remaining activity at 10 µM (FLT3(R834Q)): 100%; remaining activity at 10 µM [3]: 6%
